These results are taken from patent US7968542B2, “Thiophene compounds and thrombopoietin receptor activators” (Nissan Chemical Industries, Ltd., priority 2005, dated 2011).

This assay concerns Human bone marrow CD34+ cells. In words: Megakaryocyte colony stimulating activity (megakaryocyte colony forming method). Type of assay: cell-based. As to conditions: 11 days. How it is done: The action of the compounds of Synthetic Examples 1 to 43 of the present invention and Reference Synthetic Examples 29 and 30 on the proliferation, differentiation and maturation of megakaryocyte cells was measured by the megakaryocyte colony forming method using human bone marrow cells. Human bone marrow CD34^+ cells (Cambrex Bio Science Walkersville) were incubated on 2-well chamber slide for 11 days in a CO2 incubator (5% CO2, 37° C.) using MegaCult™-C (StemCell Technologies) containing 0.1% (v/v) of the compounds of Synthetic Examples dissolved in dimethyl sulfoxide. After dehydration and fixation, the cells were stained with an anti-glycoprotein IIb/IIIa antibody in accordance with the instruction by the manufacturer. The colonies consisting of at least 8 stained megakaryocyte cells in each well were counted under a microscope. The megakaryocyte colony counts in at least 2 wells were averaged.

`CC(=NNC(=O)c1ccc(C(=O)NCc2ccccn2)s1)c1csc(-c2ccc(Cl)c(Cl)c2)c1O` [Synthetic Ex. 29, 5-{1-[5-(3,4-dichlorophenyl)-4-hydroxythiophen-3-yl]ethylidenehydrazinocarbonyl}thiophene-2-carboxylic acid 2-picolylamide] came in with a Megakaryocyte colony count (drug concentration 0.1 μg/mL) of 62. On to `CC(=NNC(=O)c1ccc(C(=O)NCc2ccccn2)s1)c1csc(-c2ccc(Cl)cc2)c1O` [Synthetic Ex. 25, 5-{1-[5-(4-chlorophenyl)-4-hydroxythiophen-3-yl]ethylidenehydrazinocarbonyl]thiophene-2-carboxylic acid 2-picolylamide], for which the Megakaryocyte colony count (drug concentration 1 μg/mL) is reported as 118. For the compound `CC(=NNC(=O)c1ccc(C(=O)NC(C)C)s1)c1csc(-c2ccc(C)c(C)c2)c1O` [Synthetic Ex. 28, 5-{1-[5-(3,4-dimethylphenyl)-4-hydroxythiophen-3-yl]ethylidenehydrazinocarbonyl]thiophene-2-carboxylic acid isopropylamide], the Megakaryocyte colony count (drug concentration 1 μg/mL) is reported as 105.

`CC(=NNC(=O)c1ccc(C(=O)N(C)C)s1)c1csc(-c2ccc(Cl)c(Cl)c2)c1O.[K]` [Synthetic Ex. 5, 5-{1-[5-(3,4-dichlorophenyl)-4-hydroxythiophen-3-yl]ethylidenehydrazinocarbonyl}thiophene-2-carboxylic acid dimethylamide potassium salt]: the Megakaryocyte colony count (drug concentration 1 μg/mL) was found to be 274. Compound `CC(=NNC(=O)c1ccc(C(=O)N2CCOCC2)s1)c1csc(-c2ccc(Cl)c(Cl)c2)c1O.[K]` [Synthetic Ex. 2, 5-(morpholine-4-carbonyl)thiophene-2-carboxylic acid {1-[5-(3,4-dichlorophenyl)-4-hydroxythiophen-3-yl]ethylidene}hydrazide potassium salt] gave a Megakaryocyte colony count (drug concentration 1 μg/mL) of 239.

In turn, `CC(=NNC(=O)c1ccc(C(=O)NCCCc2ccncc2)s1)c1csc(-c2ccc(Cl)c(Cl)c2)c1O` [Synthetic Ex. 40, 5-{1-[5-(3,4-dichlorophenyl)-4-hydroxythiophen-3-yl]ethylidenehydrazinocarbonyl}thiophene-2-carboxylic acid 3-(pyridin-4-yl)propylamide] yielded a Megakaryocyte colony count (drug concentration 0.1 μg/mL) of 70. On to `CC(=NNC(=O)c1ccc(C(=O)N2CCN(C(C)C)CC2)s1)c1csc(-c2ccc(Cl)c(Cl)c2)c1O` [Synthetic Ex. 1, 5-(4-isopropylpiperazine-1-carbonyl)thiophene-2-carboxylic acid {1-[5-(3,4-dichlorophenyl)-4-hydroxythiophen-3-yl]ethylidene}hydrazide], for which the Megakaryocyte colony count (drug concentration 1 μg/mL) came to 154. In the case of `CC(=NNC(=O)c1ccc(C(=O)NCc2cccnc2)s1)c1csc(-c2ccc(Br)cc2)c1O` [Synthetic Ex. 17, 5-{1-[5-(4-bromophenyl)-4-hydroxythiophen-3-yl]ethylidenehydrazinocarbonyl}thiophene-2-carboxylic acid 3-picolylamide], the Megakaryocyte colony count (drug concentration 1 μg/mL) turned out to be 146. For the setting “drug concentration 1 μg/mL”, `CC(=NNC(=O)c1ccc(C(=O)NCc2ccco2)s1)c1csc(-c2ccc(Br)cc2)c1O` [Synthetic Ex. 19, 5-{1-[5-(4-bromophenyl)-4-hydroxythiophen-3-yl]ethylidenehydrazinocarbonyl}thiophene-2-carboxylic acid furan-2-ylmethylamide] returned a Megakaryocyte colony count of 171.

`CC(=NNC(=O)c1ccc(C(=O)NCc2cc[n+]([O-])cc2)s1)c1csc(-c2ccc(Cl)c(Cl)c2)c1O` [Synthetic Ex. 39, 4-[{5-(2-[1-{5-(3,4-dichlorophenyl)-4-hydroxythiophen-3-yl}ethylidene]hydrazinocarbonyl)thiophene-2-carboxamido}methyl]pyridine 1-oxide] came in with a Megakaryocyte colony count (drug concentration 0.1 μg/mL) of 86. For `CCN(CC)C(=O)c1ccc(C(=O)NN=C(C)c2csc(-c3ccc(C(F)(F)F)cc3)c2O)s1` [Synthetic Ex. 8, 5-{1-[5-(4-trifluoromethylphenyl)-4-hydroxythiophen-3-yl]ethylidenehydrazinocarbonyl}thiophene-2-carboxylic acid diethylamide], the Megakaryocyte colony count is reported as 147 (drug concentration 0.1 μg/mL) and 227 (drug concentration 1 μg/mL). In the same order, the values of `CC(=NNC(=O)c1ccc(C(=O)NCc2ccno2)s1)c1csc(-c2ccc(Cl)c(Cl)c2)c1O` [Synthetic Ex. 35, 5-{1-[5-(3,4-dichlorophenyl)-4-hydroxythiophen-3-yl]ethylidenehydrazinocarbonyl}thiophene-2-carboxylic acid (isoxazol-5-ylmethyl)amide] are 135 and 153.
